Laboratory results from patent US12492163B2, “9H-fluorene derivatives or their pharmaceutically acceptable salts” (priority 2020, dated 2025).

Assays:
mGAT4 = mGAT4 (Mus musculus (Mouse), UniProt P31650); test: [3H]GABA uptake inhibition, mGAT4 in HEK293 cells; assay type: cell-based; settings: GABA reuptake
Procedure: Exemplary compounds according to the invention were screened at the Ludwig-Maximilian University of Munich to determine the inhibitory ability towards four mouse GAT transporters (mGAT1-mGAT4). […] The biological material was stably transfected human embryonic kidney HEK293 cells, expressing genes to the appropriate transporters. The generated radioactivity was measured with a liquid scintillation counter. […] These determinations were made according to the procedure described in detail in A. Kragler, G. Höfner, K. T. Wanner, Novel parent structures for inhibitors of the murine GABA transporters mGAT3 and mGAT4, Eur. J. Pharmacol. 519 (2005) 43-47.

ICR-CD1 mice = test: Acute toxicity study in mice; assay type: in vivo, Mus musculus; parameters: key to Tremor / Convulsions / Hyper/Hypoventilation / Drooping eyelids / General exhaustion: mild (+); moderate (++); severe (+++)
Procedure: The research was carried out at the Department of Toxicology and Military Pharmacy, Faculty of Military Health Sciences in Hradec Kralove, Defense University in Brno in the Czech Republic, at the Biomedical Research Center and at the Department of Clinical Biochemistry of the University Hospital Hradec Kralove in the Czech Republic. All procedures were carried out under the supervision of the Ethics Committee of the Faculty of Military Health Sciences (No. 20/19; MO 215611/2019-684800). Male and female ICR-CD1 strain of domestic mice (Mus musculus) (body weight approx. 20-25 g) were used in the research. The animals were kept in standard, appropriately sized cages, divided into groups of a maximum of 8 animals. The animals in the test groups were administered the test compound intraperitoneally (doses in the acute toxicity study: 10, 20, 40 and 60 mg/kg, dose in the study of pharmacokinetic parameters 10 mg/kg). Control groups received 1% Tween 80.
The study assesses the toxicity profile of the compound by observation of emerging adverse effects, biochemical parameters analysis and histopathological analysis, and determines the maximum tolerated dose (MTD). Mice were randomly assigned to experimental groups consisting of two males and two females. […] Toxic symptoms were classified as in the previous published study [J. Misik]. Weight loss or reduction in food consumption was assessed according to the FELAS classification [K. L. Chapman] for the first two hours, and then periodically for the next 46 hours. All 48-hour survivors were euthanized. Blood was collected for biochemical analysis and selected organs (kidneys and liver) were collected for histopathological examination. Venous blood was collected in heparinized tubes. Plasma was then separated (3000×g, 5 min, 4° C.) using a centrifuge. The concentration of urea and creatinine as well as the activity of alanine aminotransferase (ALT), aspartate aminotransferase (AST), alkaline phosphatase (ALP), amylase and lactate dehydrogenase (LDH) were determined in an accredited biochemical laboratory. The harvested organs: liver and kidneys were used for standard histopathological examination. Organs were fixed with 10% neutral buffered formalin, processed for histology, and stained with hematoxylin and eosin as in a previous published study [J. Pejchal]. Histopathological changes were assessed microscopically.

Albino Swiss CD-1 mice = test: Rotarod test; assay type: in vivo
Procedure: The research was conducted at the Department of Pharmacodynamics, Faculty of Pharmacy, Jagiellonian University in Krakow. All procedures were approved by the 1st and 2nd Local Ethics Committee for Animal Experiments in Krakow (consent no. 53/2017 and 250/2019) and were performed in accordance with the applicable European Union regulation (86/609/EEC). Males of two different strains of domestic mice (Mus musculus) were used in the study: Albino Swiss CD-1 (body weight approx. 20-24 g, age approx. 6 weeks) and C57BL/6J mice (body weight approx. 18-22 g, age approx. 6 weeks). The CD-1 strain was used for the passive avoidance, spontaneous mobility and rotating rod tests, while the C57BL/6J mice were used for the Morris water maze and the Barnes' maze. The animals were kept in standard, appropriately sized cages, divided into groups with a maximum of 10 animals. The animals in the study groups in the learning phase were intraperitoneally administered the test compound 1 h before the start of the experiments (doses in the preliminary test, i.e. in the passive avoidance test: 10, 30 and 60 mg/kg), and 30 minutes later, 1 mg/kg of scopolamine subcutaneously. Two control groups were used in the tests to assess the procognitive activity of JT-3—one of them received saline and the other saline and scopolamine.
Before the experiment, the mice were adequately trained (3 days, rod revolving at 18 rpm). The device consists of a rod set in a horizontal position. It is 75 cm long, divided into 4 tracks, and is set in rotation by an electric motor. This metal rod is placed 50 cm above the table to discourage mice from jumping off it. On the day of the actual test, 24 h after the animals' last training, the mice were placed sequentially on the bar for 60 s (for each rotation speed). The rod rotation speed was set to 6, 18, and 24 rpm, respectively. The inability of the mice to stay on the rod for 60 s was considered a disorder of motor coordination.

[1] = 10 mg/kg (MTD) i.p., mouse Female1
[2] = 10 mg/kg (MTD) i.p., mouse Female2
[3] = 10 mg/kg (MTD) i.p., mouse Male1
[4] = 10 mg/kg (MTD) i.p., mouse Male2
[5] = plasma, 10 mg/kg (MTD) i.p., 48 h

mGAT4, sequence (P31650 whole entry): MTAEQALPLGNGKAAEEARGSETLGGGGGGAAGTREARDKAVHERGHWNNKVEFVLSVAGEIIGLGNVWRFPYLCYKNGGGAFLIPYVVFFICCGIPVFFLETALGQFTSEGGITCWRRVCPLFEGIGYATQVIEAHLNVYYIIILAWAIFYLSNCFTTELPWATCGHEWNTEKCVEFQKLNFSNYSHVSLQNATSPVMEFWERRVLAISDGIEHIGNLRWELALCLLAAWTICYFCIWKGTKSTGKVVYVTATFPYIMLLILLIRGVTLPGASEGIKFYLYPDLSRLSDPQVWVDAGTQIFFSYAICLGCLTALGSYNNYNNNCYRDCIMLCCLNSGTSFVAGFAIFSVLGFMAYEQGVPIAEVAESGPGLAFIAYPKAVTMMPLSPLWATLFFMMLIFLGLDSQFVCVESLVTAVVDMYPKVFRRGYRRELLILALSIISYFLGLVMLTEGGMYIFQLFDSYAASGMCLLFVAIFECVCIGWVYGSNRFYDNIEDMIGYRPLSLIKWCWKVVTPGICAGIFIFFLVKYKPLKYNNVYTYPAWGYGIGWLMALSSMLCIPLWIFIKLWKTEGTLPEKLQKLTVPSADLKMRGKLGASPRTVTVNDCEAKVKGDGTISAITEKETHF

`O[C@H](CNCC1CC1)[C@H](Cc1ccccc1)NC1c2ccccc2-c2ccccc21` [JT-3, (2R,3S)-3-((9H-fluoren-9-yl)amino)-1-((cyclopropylmethyl)amino)-4-phenylbutan-2-ol] was tested, and the “pIC50 (+/−SEM) mGAT4” value (mGAT4) was 5.11 +/− 0.02, the “changes in biochemical parameters (urea, creatinine, liver enzymes, ALP, amylase, LDH) compared to control” value (ICR-CD1 mice; 10 mg/kg (MTD) i.p.) was “no statistically significant changes” and the “histopathological changes (liver, kidneys)” value (ICR-CD1 mice; 10 mg/kg (MTD) i.p.) was “only sporadic infiltration of neutrophils into the liver and adipose tissue was observed in two animals, without any signs of liver or kidney damage”. The “Body weight change at 24 h (%)” value (ICR-CD1 mice; [1]) was −3.9%, the “Body weight change at 48 h (%)” value (ICR-CD1 mice; [1]) was −0.4% and the Drooping eyelids (ICR-CD1 mice; [1]) was “+”. The General exhaustion (ICR-CD1 mice; [1]) was “+”, the Hyper/Hypoventilation (ICR-CD1 mice; [1]) was “+” and the Tremor (ICR-CD1 mice; [1]) was “+”. The “Body weight change at 24 h (%)” value (ICR-CD1 mice; [2]) was −5.8%, the “Body weight change at 48 h (%)” value (ICR-CD1 mice; [2]) was −5.2% and the Convulsions (ICR-CD1 mice; [2]) was “+”. For the same compound, the Drooping eyelids (ICR-CD1 mice; [2]) was “+”, the General exhaustion (ICR-CD1 mice; [2]) was “+” and the Hyper/Hypoventilation (ICR-CD1 mice; [2]) was “+”. The Tremor (ICR-CD1 mice; [2]) was “++”, the “Body weight change at 24 h (%)” value (ICR-CD1 mice; [3]) was −1.3% and the “Body weight change at 48 h (%)” value (ICR-CD1 mice; [3]) was −2.4%. The General exhaustion (ICR-CD1 mice; [3]) was “+”, the Hyper/Hypoventilation (ICR-CD1 mice; [3]) was “+” and the Tremor (ICR-CD1 mice; [3]) was “+”. For the same compound, the “Body weight change at 24 h (%)” value (ICR-CD1 mice; [4]) was −1.2%, the “Body weight change at 48 h (%)” value (ICR-CD1 mice; [4]) was −0.7% and the General exhaustion (ICR-CD1 mice; [4]) was “+”. The Hyper/Hypoventilation (ICR-CD1 mice; [4]) was “+”, the Tremor (ICR-CD1 mice; [4]) was “+” and the “maximum tolerated dose (MTD)” value (ICR-CD1 mice; mice, i.p., doses tested 10, 20, 40 and 60 mg/kg) was 10 mg/kg. It also gave an ALP (ICR-CD1 mice; [5]) of 68.4 ± 27.2 U/L, an ALT (ICR-CD1 mice; [5]) of 29.0 ± 6.5 U/L and an AST (ICR-CD1 mice; [5]) of 56.8 ± 6.6 U/L. It also gave an Amylase (ICR-CD1 mice; [5]) of 2955 ± 501 U/L, an LDH (ICR-CD1 mice; [5]) of 275 ± 94 U/L and a Urea (ICR-CD1 mice; [5]) of 33.8 ± 8.2 mg/dL. The “influence on motor coordination” value (Albino Swiss CD-1 mice; 10 mg/kg) was “No negative influence”, the “time kept on the bar” value (Albino Swiss CD-1 mice; 10 mg/kg and 30 mg/kg, speeds of 6, 18, and 24 rpm, all animals) was 60 s and the “influence on motor coordination” value (Albino Swiss CD-1 mice; 30 mg/kg) was “No negative influence”.
